This note sets out measurements from US11434468B2, “Lactic acid bacteria and its applications” (Bened Biomedical Co., Ltd., priority 2017, dated 2022).

The subject of experiment [1] is rats subjected to chronic mild stress. The experiment can be described thus: Morris water maze after chronic mild stress. Type of experiment: in vivo, rat. Conditions: 4 weeks chronic mild stress, daily oral gavage, comparison between groups, P<0.05, FIG. 6(a). The method, then:
The diameter of the MWM used was 210 cm, where the height of the pool was 51 cm with non-reflective interior surfaces. The maze was placed in a room with a video camera set up on top of the maze to capture and record the animal's behavior. The water maze was filled up with water of temperature ranging within 19-22° C. to avoid the rats from getting temperature shock (hypothermia or hyperthermia). Then, a colorless and transparent circular goal or platform (designated as escape platform) with the diameter of 10-12 cm was submerged 1-2 cm below the water surface and ensured with stability to avoid tipping of animal when the rats climb on it.
The start locations of the MWM was designated at East, West and South East, while the escape platform is submerge at North East. A consecutive four daily trials were performed using these three start locations. Briefly, the animals were gently placed on the first start locations and allowed to swim freely to search for the escape platform. A maximum of two minutes was given for each animal to perform the search for the escape platform. All rats were dried thoroughly with clean towel after the Morris test before returning them to their respective cage. Time taken by each animal to locate the escape, escape latency (seconds) is expressed as mean±standard of mean from six replicates (n=6) per group. […]

Experiment [2] has the same test system. Nature of the experiment: Elevated plus maze after 4 weeks of chronic mild stress protocol. It is filed as in vivo, rat. Conditions: 4 weeks chronic mild stress, daily oral gavage (PS150 1×10^9 cfu; protein 300 mg/kg; alprazolam), 5 min, comparison between groups. An excerpt: The elevated plus maze (EPM) consists of four arms, two open arms without walls and two enclosed walls of 40 cm high, 50 cm long and 15 cm wide. Each arm of the maze is attached with firm metallic legs with 70 cm high. The EPM was placed in a room with bright lighting, close to the center of the room. The levels of illumination of both open and closed arms were maintained similar. A video camera was set up above the elevated plus maze to capture and record the animal's behavior.
Animal was taken out from its cage and placed at the middle (ie. the junction of the open and closed arm) of EPM, facing away from the maze towards the wall. Each animal was given 5 minutes to explore freely on the EPM. Throughout the assessment, the EPM was cleaned and dried with 70% ethanol before accessing the next animal. The number of open arm entries and time spent in open arms were observed, timed and recorded. The number of entries to open arms and the duration spent on open arms were recorded and expressed as mean±standard of means from six replicates (n=6) per group.
Analyses on rat behavior were carried out after 4 weeks of chronic mild stress protocol. […] Rats were placed at the junction of the four arms of the maze, facing an open arm, and entries/duration in each arm was recorded for 5 min. […]

Experiment [3] shares this test system. Nature of the experiment: Open field test after 4 weeks of chronic mild stress protocol. The note with it: 4 weeks chronic mild stress, daily oral gavage, 5 min open field test. Type of experiment: in vivo, rat. The method, then: Open field test was performed using an opaque rectangular box with the dimension of 32 cm high, 38 cm width and 52 cm long was placed in the center of the experiment room supplied with bright lighting. A video camera was set up above the rectangular box to capture the behavior of the animals.
Each animal was gently transferred from its cage into the OFT and allowed to freely explore inside the box. […] The box was cleaned with 70% ethanol during the interval of each test throughout the assessment. The duration of exploratory and immobility was expressed as mean±standard of mean from six replicates (n=6) per group.
The open field test is broadly used to assess exploratory behavior and validated for use in the measurement of anxiety-related behaviors. The procedure consists of subjecting the rat, to an unknown environment from which escape is prevented by surrounding walls. […] Increased exploratory behaviours in rats indicate less anxiety states, whereas immobility indicate anxiety behaviour in rats.

The test system is the same in experiment [4]. The experiment can be described thus: Forced swim test after 4 weeks of chronic mild stress protocol. Type of experiment: in vivo, rat. The note with it: 4 weeks chronic mild stress, daily oral gavage, 5 min forced swim test, comparison between groups, P<0.05, FIG. 3. As to the method: Forced swim test (FST) was performed in a black opaque swim cylinder with a depth of 68 cm and diameter of 40 cm. The cylinder was filled up with water to the depth of 30 cm, leaving some space on top to prevent the escape of rat. A video camera was set up above the swim cylinder to capture and record the animals' behavior during the test.
Each animal was gently placed into the water in the swim cylinder and was given 5 minutes to swim freely in the swim cylinder. The behavior of the animals were observed and recorded throughout the test. All rats were dried thoroughly with clean towel after the FST before returning them to their respective cage throughout the assessment. The duration of immobility of the rats were timed and then expressed as mean±standard of mean from six replicates (n=6) per group.
Forced swim test is one of the most commonly used assays for the study of depressive-like behavior in rodents. […] In forced swim test, a swimming cylinder filled with 30 cm depth of water. Depression assessment of rats was performed by scoring predominant behavior in each 5-s period of the 300-s test.

Experiment [5] concerns SH-SY5Y neuroblastoma cells. Nature of the experiment: Cell viability (MTT) upon dexamethasone-induced neurotoxicity. The note with it: dexamethasone 25 μM, MTT 48 h after treatment, unfermented MRS control = 100% viability, FIG. 11. Type of experiment: cell-based, human. As to the method: Neuroblastoma cell line, SH-SY5Y cells were purchased from Korea Cell Line Bank (KCLB; Seoul, Korea). Cells were maintained in high glucose Dulbecco's Modified Eagle Medium (DMEM; Difco, Detroit, Mich., USA) supplemented with 10% heat-inactivated fetal bovine serum (FBS; Gibco Life Technologies Inc, Grand Island, N.Y., USA), 100 U/mL penicillin/streptomycin (Gibco Life Technologies Inc, Grand Island, N.Y., USA). Cultures were seeded into flasks containing supplemented medium and maintained at 37° C. in a humidified atmosphere of 5% CO2 and 95% air.
The SH-SY5Y cells were seeded into 96-well culture plates at a seeding density 1×10^5 cells per well. All cells in this study were maintained in 10% serum medium until the dexamethasone (Dex; Sigma-Aldrich, Steinheim, Germany) treatment. Cells were incubated for 24 h to allow attachment to the culture plate before treatment. […] The 3-(4, 5 dimethylthiazol-2-yl)-2,5-diphenyl-tetrazolium bromide (MTT; Sigma-Aldrich, Steinheim, Germany) reduction was analyzed 48 h after treatment.
Cell viability was measured by quantitative colorimetric assay with MTT, as described previously by Denizot and Lang (J Immunol Methods. 1986 May 22; 89(2):271-7.). […] Colorimetric determination of MTT reduction was measured at 570 nm using microplate reader (Thermo Scientific, Waltham, Mass., US). […]

Turning to `Cc1nnc2n1-c1ccc(Cl)cc1C(c1ccccc1)=NC2` [alprazolam], the Escape latency result in experiment [1] was “Insignificant difference”. Also, the “Number of entries into the open arms” value in experiment [2] (P<0.05, FIG. 1(a)) is “insignificant differences”. The “Ratio of time spent on the closed arms to the time spent on the open arms” value in experiment [2] (P<0.05, FIG. 1(b)) is reported as “insignificant differences”. For the same compound, the Duration of immobility entry in experiment [3] (between naïve control, positive control, PS150 and protein fraction groups, FIG. 2) is “insignificantly different”. For the same compound, the “Duration of exploratory activity” value in experiment [3] (comparison between groups, P<0.05, FIG. 2) is “insignificantly different”. For the same compound, in experiment [4], the Time spent immobile entry was “insignificantly different”.
As to “fraction A: HPLC-purified fraction of the PS150 protein fraction, approximately 55 kDa, identified as elongation factor Tu (SEQ ID NO:4)”, the “Neuroprotective effect (cell viability) against dexamethasone” value in experiment [5] is on record as “most prevalent neuroprotective effect”.
